Patent US20220226321A1, “INHIBITOR OF MNK FOR THE TREATMENT OF NEUROPATHIC PAIN” (Board of Regents, The University of Texas System, priority 2019, published 2022)
Read-outs that look alike come from different tables or passages of the source.

Tested on: Nav1.8-positive nociceptors
Assay type: in vivo, mouse
[1] = input transcriptome of whole DRG, day 10

For CC(=O)O[C@H]1C(=O)[C@@]2(C)[C@H]([C@H](OC(=O)c3ccccc3)[C@]3(O)C[C@H](OC(=O)[C@H](O)[C@@H](NC(=O)c4ccccc4)c4ccccc4)C(C)=C1C3(C)C)[C@]1(OC(C)=O)CO[C@@H]1C[C@@H]2O [paclitaxel], the “Log2FC Mxd3” value (Nav1.8-TRAP after paclitaxel) was 1.905, the “Log2FC Ndufa4” value (Nav1.8-TRAP after paclitaxel) was 2.041 and the “Log2FC Ndufa8” value (Nav1.8-TRAP after paclitaxel) was 1.699. For the same compound, the “Log2FC Ndufaf7” value (Nav1.8-TRAP after paclitaxel) was 2.358, the “Log2FC Ndufs8” value (Nav1.8-TRAP after paclitaxel) was 2.837 and the “Log2FC Nedd9” value (Nav1.8-TRAP after paclitaxel) was 3.023. The “Log2FC Ngfr” value (Nav1.8-TRAP after paclitaxel) was 1.805, the “Log2FC Nipsna p3b” value (Nav1.8-TRAP after paclitaxel) was 2.057 and the “Log2FC Nme2” value (Nav1.8-TRAP after paclitaxel) was 3.66. For the same compound, the “Log2FC Ntrk1” value (Nav1.8-TRAP after paclitaxel) was 2.2, the “Log2FC Omg” value (Nav1.8-TRAP after paclitaxel) was 2.194 and the “Log2FC PIpp1” value (Nav1.8-TRAP after paclitaxel) was 2.874. The “Log2FC Pafah2” value (Nav1.8-TRAP after paclitaxel) was 2.283, the “Log2FC Pcbd2” value (Nav1.8-TRAP after paclitaxel) was 2.687 and the “Log2FC Pcdhb9” value (Nav1.8-TRAP after paclitaxel) was 2.519. The “Log2FC Pex11b” value (Nav1.8-TRAP after paclitaxel) was 3.628, the “Log2FC Pgrmc2” value (Nav1.8-TRAP after paclitaxel) was 1.76 and the “Log2FC Phpt1” value (Nav1.8-TRAP after paclitaxel) was 1.814. The “Log2FC Pnrc2” value (Nav1.8-TRAP after paclitaxel) was 1.668, the “Log2FC Polr1c” value (Nav1.8-TRAP after paclitaxel) was 2.731 and the “Log2FC Polr2j” value (Nav1.8-TRAP after paclitaxel) was 3.518. The “Log2FC Ppdpf” value (Nav1.8-TRAP after paclitaxel) was 2.038, the “Log2FC Ppp1ca” value (Nav1.8-TRAP after paclitaxel) was 2.094 and the “Log2FC Praf2” value (Nav1.8-TRAP after paclitaxel) was 2.335. For the same compound, the “Log2FC Prdx5” value (Nav1.8-TRAP after paclitaxel) was 2.174, the “Log2FC Prg4” value (Nav1.8-TRAP after paclitaxel) was 3.247 and the “Log2FC Prkrir” value (Nav1.8-TRAP after paclitaxel) was 2.096. For the same compound, the “Log2FC Prkx” value (Nav1.8-TRAP after paclitaxel) was 2.201, the “Log2FC Prm1” value (Nav1.8-TRAP after paclitaxel) was 1.732 and the “Log2FC Psma2” value (Nav1.8-TRAP after paclitaxel) was 2.07. The “Log2FC Ptdss1” value (Nav1.8-TRAP after paclitaxel) was 1.681, the “Log2FC Ptp4a3” value (Nav1.8-TRAP after paclitaxel) was 2.248 and the “Log2FC Ptprf” value (Nav1.8-TRAP after paclitaxel) was 1.742. For the same compound, the “Log2FC Pxdc1” value (Nav1.8-TRAP after paclitaxel) was 3.578, the “Log2FC Rad9a” value (Nav1.8-TRAP after paclitaxel) was 1.786 and the “Log2FC Rbc1” value (Nav1.8-TRAP after paclitaxel) was 1.841. For the same compound, the “Log2FC Rcn3” value (Nav1.8-TRAP after paclitaxel) was 2.085, the “Log2FC Rd54l” value (Nav1.8-TRAP after paclitaxel) was 4.965 and the “Log2FC Rft1” value (Nav1.8-TRAP after paclitaxel) was 3.183. For the same compound, the “Log2FC Rho” value (Nav1.8-TRAP after paclitaxel) was 5.352, the “Log2FC Rnase4” value (Nav1.8-TRAP after paclitaxel) was 2.356 and the “Log2FC Rnh1” value (Nav1.8-TRAP after paclitaxel) was 2.827. For the same compound, the “Log2FC Romo1” value (Nav1.8-TRAP after paclitaxel) was 2.002, the “Log2FC Rpl10a” value (Nav1.8-TRAP after paclitaxel) was 2.764 and the “Log2FC Rpl23a” value (Nav1.8-TRAP after paclitaxel) was 1.728. For the same compound, the “Log2FC Rpl37” value (Nav1.8-TRAP after paclitaxel) was 2.314, the “Log2FC Rpl39” value (Nav1.8-TRAP after paclitaxel) was 2.279 and the “Log2FC Rprm” value (Nav1.8-TRAP after paclitaxel) was 1.703. For the same compound, the “Log2FC Rps2” value (Nav1.8-TRAP after paclitaxel) was 2.442, the “Log2FC Rps29” value (Nav1.8-TRAP after paclitaxel) was 2.994 and the “Log2FC Rraga” value (Nav1.8-TRAP after paclitaxel) was 1.845. The “Log2FC Rtn4rl1” value (Nav1.8-TRAP after paclitaxel) was 2.407, the “Log2FC Rwdd1” value (Nav1.8-TRAP after paclitaxel) was 2.511 and the “Log2FC Sag” value (Nav1.8-TRAP after paclitaxel) was 1.948. For the same compound, the “Log2FC Scpep1” value (Nav1.8-TRAP after paclitaxel) was 2.923, the “Log2FC Sdhb” value (Nav1.8-TRAP after paclitaxel) was 3.236 and the “Log2FC Sec14I1” value (Nav1.8-TRAP after paclitaxel) was 2.129. For the same compound, the “Log2FC Serp2” value (Nav1.8-TRAP after paclitaxel) was 2.805, the “Log2FC Serpina3n” value (Nav1.8-TRAP after paclitaxel) was 2.549 and the “Log2FC Serping1” value (Nav1.8-TRAP after paclitaxel) was 3.002. For the same compound, the “Log2FC Shisa5” value (Nav1.8-TRAP after paclitaxel) was 2.137, the “Log2FC Slc3a2” value (Nav1.8-TRAP after paclitaxel) was 2.841 and the “Log2FC Slc6a15” value (Nav1.8-TRAP after paclitaxel) was 1.979. The “Log2FC Slc25a3” value (Nav1.8-TRAP after paclitaxel) was 2.641, the “Log2FC Slc30a6” value (Nav1.8-TRAP after paclitaxel) was 2.809 and the “Log2FC Slc48a1” value (Nav1.8-TRAP after paclitaxel) was 1.977. The “Log2FC Smdt1” value (Nav1.8-TRAP after paclitaxel) was 2.016, the “Log2FC Smug1” value (Nav1.8-TRAP after paclitaxel) was 4.754 and the “Log2FC Snrpg” value (Nav1.8-TRAP after paclitaxel) was 1.657. For the same compound, the “Log2FC Soat2” value (Nav1.8-TRAP after paclitaxel) was 4.066, the “Log2FC Sod1” value (Nav1.8-TRAP after paclitaxel) was 1.77 and the “Log2FC Sorbs1” value (Nav1.8-TRAP after paclitaxel) was 2.942. The “Log2FC Spink10” value (Nav1.8-TRAP after paclitaxel) was 3.169, the “Log2FC Synb” value (Nav1.8-TRAP after paclitaxel) was 3.1 and the “Log2FC Syngr3” value (Nav1.8-TRAP after paclitaxel) was 1.701. For the same compound, the “Log2FC Tagln3” value (Nav1.8-TRAP after paclitaxel) was 2.101, the “Log2FC Tdrp” value (Nav1.8-TRAP after paclitaxel) was 2.335 and the “Log2FC Tgm2” value (Nav1.8-TRAP after paclitaxel) was 2.739. The “Log2FC Thoc7” value (Nav1.8-TRAP after paclitaxel) was 2.07, the “Log2FC Timm8b” value (Nav1.8-TRAP after paclitaxel) was 2.815 and the “Log2FC Timm9” value (Nav1.8-TRAP after paclitaxel) was 1.838. The “Log2FC Tmem9b” value (Nav1.8-TRAP after paclitaxel) was 1.818, the “Log2FC Tmem14c” value (Nav1.8-TRAP after paclitaxel) was 1.657 and the “Log2FC Tmem53” value (Nav1.8-TRAP after paclitaxel) was 2.851. For the same compound, the “Log2FC Tmem106b” value (Nav1.8-TRAP after paclitaxel) was 1.891, the “Log2FC Tmem120b” value (Nav1.8-TRAP after paclitaxel) was 3.033 and the “Log2FC Tmem126a” value (Nav1.8-TRAP after paclitaxel) was 2.744. The “Log2FC Tmem129” value (Nav1.8-TRAP after paclitaxel) was 2.655, the “Log2FC Tnfaip8l3” value (Nav1.8-TRAP after paclitaxel) was 4.38 and the “Log2FC Tonsl” value (Nav1.8-TRAP after paclitaxel) was 1.762. For the same compound, the “Log2FC Tpgs2” value (Nav1.8-TRAP after paclitaxel) was 2.076, the “Log2FC Tram1” value (Nav1.8-TRAP after paclitaxel) was 2.174 and the “Log2FC Trap1” value (Nav1.8-TRAP after paclitaxel) was 2.447. For the same compound, the “Log2FC Trim11” value (Nav1.8-TRAP after paclitaxel) was 2.395, the “Log2FC Trpv1” value (Nav1.8-TRAP after paclitaxel) was 1.657 and the “Log2FC Tspan17” value (Nav1.8-TRAP after paclitaxel) was 2.337. The “Log2FC Tubb4b” value (Nav1.8-TRAP after paclitaxel) was 2.111, the “Log2FC Tyro3” value (Nav1.8-TRAP after paclitaxel) was 2.927 and the “Log2FC Ucp1” value (Nav1.8-TRAP after paclitaxel) was 3.795. The “Log2FC Ufsp2” value (Nav1.8-TRAP after paclitaxel) was 1.927, the “Log2FC Uqcrc2” value (Nav1.8-TRAP after paclitaxel) was 3.514 and the “Log2FC Uqcrq” value (Nav1.8-TRAP after paclitaxel) was 1.825. For the same compound, the “Log2FC Use1” value (Nav1.8-TRAP after paclitaxel) was 1.748, the “Log2FC Usmg5” value (Nav1.8-TRAP after paclitaxel) was 1.798 and the “Log2FC Vezf1” value (Nav1.8-TRAP after paclitaxel) was 1.933. For the same compound, the “Log2FC Wbp2” value (Nav1.8-TRAP after paclitaxel) was 1.689, the “Log2FC Wdr35” value (Nav1.8-TRAP after paclitaxel) was 2.68 and the “Log2FC ll15ra” value (Nav1.8-TRAP after paclitaxel) was 3.551. For the same compound, the “Log2FC mt-Nd1” value (Nav1.8-TRAP after paclitaxel) was 1.74, the “normalized TPM for the Rraga mRNA” value (TRAP fraction) was 3.6±0.51 and the “increase in number of normalized reads mapping to the Rraga mRNA” value (TRAP-seq after paclitaxel treatment) was 3.5 fold. For the same compound, the “number of genes down regulated” value (TRAP-seq data set) was 222, the “number of genes up-regulated” value (TRAP-seq data set) was 230 and the “Log2FC Med6” value (gene Med6, upregulated in Nav1.8-TRAP after paclitaxel) was 2.473. For the same compound, the “Log2FC Mien1” value (gene Mien1, upregulated in Nav1.8-TRAP after paclitaxel) was 1.847, the “Log2FC Mmd” value (gene Mmd, upregulated in Nav1.8-TRAP after paclitaxel) was 2.026 and the “Log2FC Mob1a” value (gene Mob1a, upregulated in Nav1.8-TRAP after paclitaxel) was 2.683. For the same compound, the “Log2FC Mob3b” value (gene Mob3b, upregulated in Nav1.8-TRAP after paclitaxel) was 2.179, the “Log2FC Ythdf2” value (gene Ythdf2, upregulated in Nav1.8-TRAP after paclitaxel) was 1.866 and the “Log2FC Ywhaq” value (gene Ywhaq, upregulated in Nav1.8-TRAP after paclitaxel) was 1.837. The “Log2FC Zfp386” value (gene Zfp386, upregulated in Nav1.8-TRAP after paclitaxel) was 3.022, the “Log2FC Zfp467” value (gene Zfp467, upregulated in Nav1.8-TRAP after paclitaxel) was 2.147 and the “Log2FC Zyx” value (gene Zyx, upregulated in Nav1.8-TRAP after paclitaxel) was 2.08. The “normalized TPM for the Rraga mRNA” value (input fraction) was 2.04±0.17, the “number of genes down-regulated” value [1] was 1 and the “number of genes up-regulated” value [1] was 4. The “Log2FC Stx2” value (mouse, in vivo) was 1.896.
